# From patent publication US12612627B2, “Compositions and methods for increasing sodium current in cardiac cells” (REGENTS OF THE UNIVERSITY OF MINNESOTA, priority 2020, dated 2026)
# Experiments:
# [1] = tested on: miR-448; test: miR-448 level by qPCR in RL14 human cardiomyocytes; format: cell-based; settings: for increase of miR-448 by deferoxamine: then deferoxamine six hours; for miR-448 expression: RL14 cells stimulated with hypoxia-mimetic chemical for 24 hours, normalized with RNU6
# Description: Human fetal cardiomyocyte cell line RL14 (ATCC RL-14, ATCC, Manassas, VA) cells were grown in DMEM/F-12 nutrient mixture (GE Healthcare Life Sciences, Logan, UT) supplemented with 12.5% (v/v) fetal bovine serum (Gibco, Grand Island, NY) and penicillin-streptomycin (10,000 U/mL; Gibco, Grand Island, NY). HEK293T cells were maintained in DMEM high glucose supplemented with 10% fetal bovine serum and penicillin-streptomycin. hiPSC-cardiomyocytes (iCELL Cardiomyocytes) were obtained from Cellular Dynamics International (Madison, WI). iCELL cardiomyocytes were seeded and maintained using iCELL Cardiomyocyte Plating Medium and Maintenance Medium (FUJIFILM Cellular Dynamics, Inc., Madison, WI). For hypoxic conditions, the cells were cultured in an hypoxic incubator chamber (STEMCELL Technologies, Vancouver, BC) using pre-incubated culture media or were treated with hypoxic-mimetic chemicals, deferoxamine (DFX) and cobalt chloride (CoCl2) (Sigma-Aldrich, St. Louis, MO) as previously described (Chachami et al., 2004, Am J Respir Cell Mol Biol 31:544-551; Woo et al, 2006, Biochem Biophys Res Commun 343:8-14).
# Syn-hsa-miR-448 miScript miRNA mimic, anti-hsa-miR-448 miScript miRNA inhibitor, and its negative controls were purchased from Qiagen (Valencia, CA). REST siRNA and its negative control were obtained from Integrated DNA Technologies (Coralville, IA). The cells were transfected using HiPerFect Transfection Reagent (Qiagen, Valencia, CA) following the recommendations of the manufacturer. Plasmid DNA was transfected into cultured cells using SuperFect transfection reagent (Qiagen, Valencia, CA) following the manufacturer's protocol.
# Total RNA was prepared using RNeasy Plus Mini Kit or miRNeasy Mini Kit (Qiagen, Valencia, CA) according to the manufacturer's instructions. Reverse transcription was performed with a First Strand cDNA Synthesis kit (Promega, Madison, WI). cDNA for miRNA detection was generated by the miScript II RT Kit (Qiagen, Valencia, CA). A reverse transcription quantitative real-time PCR was performed with SYBR Green PCR Master Mix (Thermo Fisher Scientific, Waltham, MA) using the 7500Fast Real-Time PCR system (Thermo Fisher Scientific, Waltham, MA) and miScript SYBR Green PCR Kit with miScript primer assays to detect the expression of miRNA. The primer sequences were as follows:
# Hs_miR-448_1 miScript Primer Assay (5′-[…]-3′; (SEQ ID NO:1; Qiagen, Valencia, CA) was used for detecting miR-448, and the Hs_RNU6-2_11 miScript Primer Assay (Qiagen, Valencia, CA) was used as an endogenous control. The relative fold change was calculated by the 2^−ΔΔCt method, and the measurements were normalized with respect to the endogenous control (RNU6, GAPDH).
# [2] = tested on: Nav1.5; test: Nav1.5 protein level by Western blotting in RL14 human cardiomyocytes; format: cell-based; settings: cardiomyocytes treated for 24 hours
# Description: Human fetal cardiomyocyte cell line RL14 (ATCC RL-14, ATCC, Manassas, VA) cells were grown in DMEM/F-12 nutrient mixture (GE Healthcare Life Sciences, Logan, UT) supplemented with 12.5% (v/v) fetal bovine serum (Gibco, Grand Island, NY) and penicillin-streptomycin (10,000 U/mL; Gibco, Grand Island, NY). HEK293T cells were maintained in DMEM high glucose supplemented with 10% fetal bovine serum and penicillin-streptomycin. hiPSC-cardiomyocytes (iCELL Cardiomyocytes) were obtained from Cellular Dynamics International (Madison, WI). iCELL cardiomyocytes were seeded and maintained using iCELL Cardiomyocyte Plating Medium and Maintenance Medium (FUJIFILM Cellular Dynamics, Inc., Madison, WI). […]
# Cells were washed twice with ice-cold PBS and disrupted in Cell Lysis Buffer (Cell Signaling Technology, Danvers, MA) with Protease and Phosphatase Inhibitor Cocktail (Thermo Fisher Scientific, Waltham, MA) on ice for 30 minutes. […] The total protein concentration was quantified using the BCA Protein Assay Kit (Pierce, Thermo Fisher Scientific, Waltham, MA). […]
# After TBST washing, the membrane was incubated with horseradish peroxidase (HRP)-conjugated secondary antibody (1:5000) for 90 min at room temperature. […] The images were analyzed using ImageJ software to measure band density. […]
structure (smiles),measurement,setting,value
Cc1ccc(S(=O)(=O)/C=C/C#N)cc1 [Bay11-7028],increase of miR-448 by deferoxamine,[1]; 0.5 μM or 2 μM for 30 minutes,inhibited
O=S(=O)(NCCSSCCNS(=O)(=O)c1cc(Cl)ccc1Cl)c1cc(Cl)ccc1Cl [KC7F2],increase of miR-448 by deferoxamine,[1]; 5 μM or 20 μM for 30 minutes,inhibited
C=CCONC(=O)c1ccc2nc(-c3ccccc3O)[nH]c2c1 [X5050],Nav1.5 protein level,[2],decreased
[Cl][Co][Cl] [cobalt chloride],miR-448 expression,[1],increased
COC(=O)CNC(=O)C(=O)OC [dimethyloxallyl glycine],miR-448 expression,[1],increased
